This passage reports IC50 results from patent publication US20240316051A1, “A PHARMACEUTICAL COMBINATION AND USE THEREOF” (Ascentage Pharma (Suzhou) Co., Ltd., priority 2021, published 2024).

SMILES strings stand for the structures. Where only a bound is given, the exact number is not on record here.

The target of one assay is T1, EED (1-441)-His protein (Homo sapiens, UniProt O75530).
T1 construct: 20 nM EED (1-441)-His protein
T1 sequence (O75530 whole entry): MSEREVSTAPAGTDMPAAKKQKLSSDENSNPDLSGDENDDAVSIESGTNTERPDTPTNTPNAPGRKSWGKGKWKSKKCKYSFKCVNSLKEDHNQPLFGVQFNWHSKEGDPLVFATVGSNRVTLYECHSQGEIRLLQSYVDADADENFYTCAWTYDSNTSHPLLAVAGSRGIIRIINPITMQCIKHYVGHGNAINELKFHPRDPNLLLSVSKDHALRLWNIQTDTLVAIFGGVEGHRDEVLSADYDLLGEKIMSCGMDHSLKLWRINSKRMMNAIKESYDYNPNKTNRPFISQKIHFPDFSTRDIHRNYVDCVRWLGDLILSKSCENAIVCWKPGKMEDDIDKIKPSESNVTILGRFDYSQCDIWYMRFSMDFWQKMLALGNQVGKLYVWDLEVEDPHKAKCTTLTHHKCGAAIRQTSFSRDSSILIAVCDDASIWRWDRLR
Kind of assay: EED-H3K27Me3 peptide competition binding assay by AlphaScreen. The conditions noted are these: IC50 class, Table 4B, read-out: Alpha screen. As for the experimental part: EED-H3K27Me3 Peptide Competition Binding Assay by AlphaScreen (α-Screen):
The compounds at each concentration (2.5 μl of each) were transferred into a 384-well Perkin Elmer OptiPlate-384 white plates. 5 μl of solutions containing 20 nM EED (1-441)-His protein in the buffer (25 mM HEPES, pH 8, 0.02% Tween-20, 0.5% BSA) were added to the wells and then incubated with compound for 15 min. 2.5 μl of solutions containing 20 nM biotin-H3K27Me3 (19-33) peptide in the buffer (25 mM HEPES, pH 8, 0.02% Tween-20, 0.5% BSA) were added to the wells and then incubated with compound for 30 min. AlphaScreen detection beads mix was prepared immediately before use by mixing nickel chelate acceptor beads and streptavidin donor beads in a 1:1 ratio (Perkin Elmer, Product No. 6760619C/M/R) into the buffer described above. Then 10 μl of the detection beads mix was added to the plate and incubated in the dark at RT for 1 h. The final concentration of donor and acceptor beads was 10 μg/ml for each. Plates were read on CLARIOStar plate reader (BMG Labtech) using the AlphaScreen setting adapted for optimal signal detection with a 615 nm filter, after sample excitation at 680 nm. The emission signal at 615 nm was used to quantify compound inhibition. AlphaScreen signals were normalized based on the reading coming from the positive (maximum signal control) and negative controls (minimum signal control) to give percentage of activities left. The data were then fit to a dose response equation to get the IC50 values.
Turning to `CC(C)N1CCc2cc(C(F)(F)F)ncc2-c2cnc(NCc3c(F)ccc4c3CCO4)n3cnc(c23)C1=O` [E 31, 13-(((5-fluoro-2,3-dihydrobenzofuran-4-yl)methyl)amino)-4-isopropyl-8-(trifluoromethyl)-5,6-dihydro-2,4,9,12,13a-pentaazabenzo[4,5]cyclonona[1,2,3-cd]inden-3(4H)-one], the IC50 lay within 10 to 100 nM.

In the case of `[2H]C([2H])(Nc1ncc2c3c(ncn13)C(=O)N(CC(F)(F)F)Cc1cc(C(=O)N(C)C)ccc1-2)c1c(F)ccc2c1CCO2` [E 24, 12-(((5-fluoro-2,3-dihydrobenzofuran-4-yl)methyl-d2)amino)-N,N-dimethyl-3-oxo-4-(2,2,2-trifluoroethyl)-4,5-dihydro-3H-2,4,11,12a-tetraazabenzo[4, 5]cycloocta[1,2,3-cd]indene-7-carboxamide], the IC50 fell in the range of 10 to 100 nM.

As for `O=C1c2ncn3c(NCc4c(F)ccc5c4CCO5)ncc(c23)-c2ccc(C3CC3)nc2CN1CC(F)(F)F` [E 14, 7-cyclopropyl-12-(((5-fluoro-2,3-dihydrobenzo-furan-4-yl)methyl)amino)-4-(2,2,2-trifluoroethyl)-4,5-dihydro-3H-2,4,6,11,12a-pentaazabenzo[4,5] cycloocta[1,2,3-cd]inden-3-one], the IC50 is less than 10 nM.

Turning to `CCc1cnc2n1Cc1cc(C(F)(F)F)ncc1-c1cnc(NCc3c(F)ccc4c3CCO4)n3cnc-2c13` [E 37, 5-ethyl-N-((5-fluoro-2,3-dihydrobenzofuran-4-yl)methyl)-8-(trifluoromethyl)-6H-2,3,5a,9,12,13a-hexaazabenzo[4,5]cyclopenta[7,8]cycloocta[1,2,3-cd]inden-13-amine], the IC50 is 10 to 100 nM.

Turning to `O=C1c2ncn3c(NCc4c(F)ccc5c4CCO5)ncc(c23)-c2ccc(C3CCOCC3)nc2CN1CC(F)(F)F` [E 45, 12-(((5-fluoro-2,3-dihydrobenzofuran-4-yl)methyl)amino)-7-(tetrahydro-2H-pyran-4-yl)-4-(2,2,2-trifluoroethyl)-4,5-dihydro-3H-2,4,6,11,12a-pentaazabenzo[4,5]cycloocta[1,2,3-cd]inden-3-one], the IC50 is less than 10 nM.

For the molecule `CC(C)(C)c1ccc2c(n1)CN(CC(F)(F)F)C(=O)c1ncn3c(NCc4c(F)ccc5c4CCO5)ncc-2c13` [E 50, 7-(tert-butyl)-12-(((5-fluoro-2,3-dihydrobenzofuran-4-yl)methyl)amino)-4-(2,2,2-trifluoroethyl)-4,5-dihydro-3H-2,4,6,11,12a-pentaazabenzo[4,5] cycloocta[1,2,3-cd]inden-3-one], the IC50 is less than 10 nM.

Take `Cc1ccc2c(n1)Cn1ccnc1-c1ncn3c(NCc4c(F)ccc5c4CCO5)ncc-2c13` [E 34, N-((5-fluoro-2,3-dihydrobenzofuran-4-yl)methyl)-8-methyl-6H-2,3,5a,7,12,13a-hexaazabenzo[4,5] cyclopenta[7,8]cycloocta[1,2,3-cd]inden-13-amine]: the IC50 was in the range of 10 to 100 nM.

As for `CC(C)N1Cc2cc(C#N)ccc2-c2cnc(NCc3c(F)ccc4c3CCO4)n3cnc(c23)C1=O` [E 4, 12-(((5-fluoro-2,3-dihydrobenzofuran-4-yl)methyl)amino)-4-isopropyl-3-oxo-4,5-dihydro-3H-2,4,11, 12a-tetraazabenzo[4,5]cycloocta[1,2,3-cd]indene-7-carbonitrile], the IC50 is less than 10 nM.

With `Cc1ccc2c(n1)CCN(CC(F)(F)F)C(=O)c1ncn3c(NCc4c(F)ccc5c4CCO5)ncc-2c13` [E 30, 13-(((5-fluoro-2,3-dihydrobenzofuran-4-yl)methyl)amino)-8-methyl-4-(2,2,2-trifluoroethyl)-5,6-dihydro-2,4,7,12,13a-pentaazabenzo[4,5] cyclonona[1,2,3-cd]inden-3(4H)-one], the IC50 lay within 10 to 100 nM.

In the case of `Fc1ccc2c(c1CNc1ncc3c4c(ncn14)-c1nccn1Cc1nc(C(F)(F)F)ccc1-3)CCO2` [E 32, N-((5-fluoro-2,3-dihydrobenzofuran-4-yl)methyl)-8-(trifluoromethyl)-6H-2,3,5a,7,12,13a-hexaaza-benzo[4,5]cyclopenta[7,8]cycloocta[1,2,3-cd]inden-13-amine], the IC50 is 10 to 100 nM.

The assay is the same for the next values; noted with them: Table 4A, read-out: Alpha screen.
With `O=C1c2ncn3c(NCc4c(F)ccc5c4CCO5)ncc(c23)-c2cnc(C(F)(F)F)cc2CN1CC(F)(F)F` [Compound 84, 12-(((5-fluoro-2,3-dihydrobenzofuran-4-yl)methyl)amino)-4-(2,2,2-trifluoroethyl)-7-(trifluoromethyl)-4,5-dihydro-3H-2,4,8,11,12a-pentaazabenzo[4,5] cycloocta[1,2,3-cd]inden-3-one], the IC50 was 3.07 nM.

With `O=C1c2ncn3c(NCc4c(F)ccc5c4CCO5)ncc(c23)-c2ccc(C(F)(F)F)nc2CN1CC1CC1` [Compound 55, 4-(cyclopropylmethyl)-12-(((5-fluoro-2,3-dihydrobenzofuran-4-yl)methyl)amino)-7-(trifluoromethyl)-4,5-dihydro-3H-2,4,6,11,12a-pentaazabenzo[4,5] cycloocta[1,2,3-cd]inden-3-one], the IC50 came out at 2.14 nM.

For `O=C1OCc2nc(C(F)(F)F)ccc2-c2cnc(NCc3c(F)ccc4c3CCO4)n3cnc1c23` [Compound 14, 12-(((5-fluoro-2,3-dihydrobenzofuran-4-yl)methyl)amino)-7-(trifluoromethyl)-3H,5H-4-oxa-2,6,11, 12a-tetraazabenzo[4,5]cycloocta[1,2,3-cd]inden-3-one], the IC50 was determined as 3.35 nM.

Turning to `Cc1nn(C)c2c1-c1cnc(NCc3c(F)ccc4c3CCO4)n3cnc(c13)C(=O)N(C1CC1)C2` [Compound 56, 4-cyclopropyl-11-(((5-fluoro-2,3-dihydrobenzo-furan-4-yl)methyl)amino)-6,8-dimethyl-5,6-dihydro-2,4,6,7,10,11a-hexaazacyclopenta[4,5]cycloocta [1,2,3-cd]inden-3(4H)-one], the IC50 came to 4.49 nM.

Turning to `O=C1c2ncn3c(NCc4c(F)ccc5c4CCO5)ncc(c23)-c2ccc(C(F)(F)F)nc2CN1CC1CCOCC1` [Compound 46, 12-(((5-fluoro-2,3-dihydrobenzofuran-4-yl)methyl)amino)-4-((tetrahydro-2H-pyran-4-yl)methyl)-7-(trifluoromethyl)-4,5-dihydro-3H-2,4,6,11, 12a-pentaazabenzo[4,5]cycloocta[1,2,3-cd]inden-3-one], the IC50 turned out to be 1.07 nM.

As for `Cn1ncc2c1CNC(=O)c1ncn3c(NCc4c(F)ccc5c4CCO5)ncc-2c13` [Compound 53, 11-(((5-fluoro-2,3-dihydrobenzofuran-4-yl)methyl)amino)-6-methyl-5,6-dihydro-2,4,6,7,10,11a-hexaazacyclopenta[4,5]cycloocta[1,2,3-cd]inden-3(4H)-one], the IC50 turned out to be 3.96 nM.

Turning to `O=C1NCc2ccccc2-c2cnc(NCc3c(F)ccc4c3CCO4)n3cnc1c23` [Compound 15, 12-(((5-fluoro-2,3-dihydrobenzofuran-4-yl)methyl)amino)-4,5-dihydro-3H-2,4,11,12a-tetraazabenzo [4,5]cycloocta[1,2,3-cd]inden-3-one], the IC50 came to 0.52 nM.

In the case of `CN1Cc2nc(C(F)(F)F)ccc2-c2cnc(NCc3c(F)ccc4c3CCO4)n3cnc(c23)C1=O` [Compound 33, 12-(((5-fluoro-2,3-dihydrobenzofuran-4-yl)methyl)amino)-4-methyl-7-(trifluoromethyl)-4,5-dihydro-3H-2,4,6,11,12a-pentaazabenzo[4,5]cycloocta [1,2,3-cd]inden-3-one], the IC50 is 1.06 nM.

Regarding `O=C1OCc2cc(OC(F)(F)F)ccc2-c2cnc(NCc3c(F)ccc4c3CCO4)n3cnc1c23` [Compound 31, 12-(((5-fluoro-2,3-dihydrobenzofuran-4-yl)methyl)amino)-7-(trifluoromethoxy)-3H,5H-4-oxa-2,11, 12a-triazabenzo[4,5]cycloocta[1,2,3-cd]inden-3-one], the IC50 was 0.604 nM.

On to `O=C1NCc2nc(C(F)(F)F)ccc2-c2cnc(NCc3c(F)ccc4c3CCO4)n3cnc1c23` [Compound 25, 12-(((5-fluoro-2,3-dihydrobenzofuran-4-yl)methyl)amino)-7-(trifluoromethyl)-4,5-dihydro-3H-2,4,6, 11,12a-pentaazabenzo[4,5]cycloocta[1,2,3-cd] inden-3-one], for which the IC50 came to 3.31 nM.

Regarding `Cc1ccc2c(n1)CN(CC1CC(C)(O)C1)C(=O)c1ncn3c(NCc4c(F)ccc5c4CCO5)ncc-2c13` (stereo not shown) [Compound 50, 12-(((5-fluoro-2,3-dihydrobenzofuran-4-yl)methyl)amino)-4-((3-hydroxy-3-methylcyclobutyl)methyl)-7-methyl-4,5-dihydro-3H-2,4,6,11,12a-pentaaza benzo[4,5]cycloocta[1,2,3-cd]inden-3-one], the IC50 was found to be 1.16 nM.

In the case of `O=C1c2ncn3c(NCc4c(F)ccc5c4CCO5)ncc(c23)-c2cnc(C(F)(F)F)cc2CN1CC1(O)CC1` [Compound 43, 12-(((5-fluoro-2,3-dihydrobenzofuran-4-yl)methyl)amino)-4-((1-hydroxycyclopropyl)methyl)-7-(trifluoromethyl)-4,5-dihydro-3H-2,4,8,11,12a-pentaazabenzo[4,5]cycloocta[1,2,3-cd]inden-3-one], the IC50 came to 1.05 nM.
